# Test results reported in patent US10941114B2, “Small molecule lipid II inhibitors” (University Of Maryland, Baltimore, priority 2015, dated 2021).
# Structures can show the parent of a compound that is named as a salt. Where two headings read alike, the source gives them in different places.
# Key:
# Escherichia coli = assay: Antibacterial activity assay (MIC, broth dilution); format: cell-based; conditions: determined as in Example 1E (MIC)
# Staphylococcus aureus = assay: Antibacterial activity assay (MIC, broth dilution); format: cell-based; parameters: S. aureus Killing / Bacterial Killing S. aureus: unit not given here; conditions: for Bacterial Killing S. aureus: determined as in Example 1E (MIC); for MIC SA: S. aureus USA300 (MRSA), average of two replicates; for MIC: Staphylococcus aureus, Table 16, CLSI M07-A10 dilution method, read-out: MIC S. aureus
# Enterococcus faecium = assay: Antibacterial activity assay (MIC, broth dilution); format: cell-based; parameters: Bacterial Killing E. faecium: unit: ug/mL; conditions: for Bacterial Killing E. faecium: determined as in Example 1E (MIC); for MIC EF: average of two replicates; for MIC: Enterococcus faecium, Table 16, CLSI M07-A10 dilution method, read-out: MIC E. faecium
# Experimental: (§1) Determination of the Minimal Inhibitory Concentrations (MIC) by dilution was carried out by broth dilution according to CLSI standards. See CLSI, Methods for Dilution Antimicrobial Susceptibility Tests for Bacteria That Grow Aerobically; Approved Standard—Eighth Edition. 2009, the contents of which are hereby incorporated by reference. Briefly, the minimum inhibitory concentration MIC, is the lowest concentration of a compound that prevents visible growth of a bacterium, in other words at which it has bacteriostatic activity.
# For these tests, cation-adjusted Mueller Hinton broth, containing 10% brain-heart infusion (BHI) was used. Concentrations (MIC) are given in μg/mL. The compound was […].
# (§2) Compounds were tested for MIC by methods known in the art and described in CLSI, Methods for Dilution Antimicrobial Susceptibility Tests for Bacteria That Grow Aerobically; Approved Standard—Tenth Edition. CLSI document M07-A10. Wayne, Pa.: Clinical and Laboratory Standards Institute, 2015, which is hereby incorporated by reference for these methods.
# (§3) Selected compounds also were tested by broth microdilution methods known in the art and described in CLSI, Methods for Dilution Antimicrobial Susceptibility Tests for Bacteria That Grow Aerobically; Approved Standard—Tenth Edition. CLSI document M07-A10. Wayne, Pa.: Clinical and Laboratory Standards Institute, 2015, which is hereby incorporated by reference. Structures of selected compounds in the tables are listed below.
# Acinetobacter baumannii = assay: Antibacterial activity assay (MIC, broth dilution); format: cell-based; conditions: for MIC AB: A. baumannii 2-2-2 (colistin-resistant clinical isolate), average of two replicates; for MIC: Acinetobacter baumannii, Table 16, CLSI M07-A10 dilution method, read-out: MIC A. baumannii
# Experimental: as §1, §2, §3
# HeLa cells = assay: Cytotoxicity testing (CC50, MTS assay); conditions: HeLa cells
# [1] = Surface Plasmon Resonance determination of Lipid II binding; conditions: SPR; for Lipid II binding affinity: FIG. 16
# Experimental: Short-chain water-soluble LII containing a lipid tail of three isoprene units (3-LII) was generated and purified essentially according to methods known in the art. See Breukink et al., Lipid II is an intrinsic component of the pore induced by nisin in bacterial membranes. J. Biol. Chem. 278(22):19898-19903, 2003, the contents of which are hereby incorporated by reference. Typically, M. flavus vesicles (120 μmol lipid-Pi) were incubated together with 500 μmol UDP-GlcNAc, 500 μmol UDP-MurNAC-pentapeptide and 400 μmol farnesyl phosphate in 100 mM Tris-HCl pH 8.0, 5 mM MgCl2. The incubation period was approximately two hours at room temperature for 3-LII (3-P). The synthesis of 3-Lipid II was followed by RP-8 reversed phase TLC (Merck™) developed with 75% methanol. For purification, the membranes were removed by centrifugation at 40,000×g; the supernatant was collected and loaded on a C18 HPLC column and eluted with a linear gradient from 50 mM ammonium bicarbonate to 100% methanol in 30 minutes. Farnesyl-Lipid II (3-Lipid II) eluted at approximately 60% methanol. Its identity was confirmed by mass spectroscopy.
# Surface Plasmon Resonance binding experiments were carried out on a BIAcore T100 system (BIAcore™ Inc., Piscataway, N.Y.) at 25° C. The assay buffer was 10 mM HEPES, 150 mM NaCl, 0.05% surfactant P20, pH 7.4 (+3 mM EDTA) supplemented with 10% DMSO. 3-Lipid II (50 RUs) was immobilized on CMS sensor chips using the amine-coupling chemistry recommended by the manufacturer. For initial determination of binding, compounds were introduced into the flow-cells (30.mu·1/min) in the running buffer at 10 μM. Resonance signals were corrected for nonspecific binding by subtracting the background of the control flow-cell. Binding to immobilized 3-LII on the chip surface was determined and scored “yes” in Table 5 when more than 20 Resonance Units or RUs were detected. Detection of less than 20 RUs was scored as “no”, meaning no significant binding to LII. After each analysis, the sensor chip surfaces were regenerated with 50 mM NaOH for 30 seconds at a flow rate 100 μL/min, and equilibrated with the buffer prior to next injection. For binding kinetics studies, binding isotherms were analyzed with manufacturer-supplied software for BIAcore™ T100.
# [2] = mouse, in vivo, iv, 10 mg/kg
# [3] = Pharmacokinetic study in mice (plasma concentration by LC/MS/MS); conditions: single dose of 10 mg/kg by intravenous injection
# [4] = text: E. faecium EF1509 (VRE), footnote: Enterococcus faecalis ATCC 1509
structure (smiles),measurement,setting,value
CN(C)c1ccc(/C=C/C=C/c2cc(-c3ccc(F)cc3)cc(-c3ccc(F)cc3)[o+]2)cc1 [Compound 7jc47-2],Bacterial Killing E. coli,Escherichia coli,>64
same,Bacterial Killing S. aureus,Staphylococcus aureus,1
same,Bacterial Killing E. faecium,Enterococcus faecium,1
CC(C)[n+]1c(/C=C/c2ccc(N(C)C)cc2)cc(-c2ccc(Br)cc2)cc1-c1ccc(Br)cc1.[I-] [EL-3],MIC AB,Acinetobacter baumannii,16 µg/mL
same,MIC SA,Staphylococcus aureus,2 µg/mL
same,CC50,HeLa cells; exposure 24 hour,9 µg/mL
same,MIC EF,Enterococcus faecium; E. faecium EF1509 (VRE),2 µg/mL
"CN(C)c1ccc(/C=C/c2cc(-c3ccc(Cl)cc3)cc(-c3ccc(Cl)cc3)[o+]2)cc1 [(E)-2,4-bis(4-chlorophenyl)-6-(4-(dimethylamino)styryl)pyrylium boron tetrafluoride salt]",S. aureus Killing,"Staphylococcus aureus; anti-bacterial activity (MIC), strain not stated",32
same,Lipid II Binding,"[1]; immobilized 3-LII, compounds at 10 μM",yes (scored “yes” in Table 5 when more than 20 Resonance Units or RUs were detected)
CN(C)c1ccc(/C=C/c2cc(-c3ccc(Br)cc3)cc(-c3ccc(Br)cc3)[n+]2C2CCCCC2)cc1.[I-] [EL-5],MIC AB,Acinetobacter baumannii,0.5 µg/mL
same,MIC SA,Staphylococcus aureus,1 µg/mL
same,CC50,HeLa cells; exposure 24 hour,4 µg/mL
same,AUCInf,[2],4125 ± 780 ng·h/mL
same,Cl—obs,[2],41.29 ± 7 mL/min/kg
same,MRT,[2],18.8 ± 1.62 h
same,T1/2,[2],23.8 ± 0.84 h
same,MIC EF,Enterococcus faecium; E. faecium EF1509 (VRE),0.25 µg/mL
same,AUCextrap,[3],27.2 ± 1.6%
same,AUClast/D,[3],300 ± 58 ng·h/mL
same,Lipid II binding affinity,[1],below micromolar
Cc1ccc(-c2cc(-c3ccc(Br)cc3)cc(/C=C/c3ccc(N(C)C)cc3)[n+]2C)cc1.[I-] [EL-8],MIC AB,Acinetobacter baumannii,4 µg/mL
same,MIC SA,Staphylococcus aureus,0.5 µg/mL
same,CC50,HeLa cells; exposure 24 hours,12 µg/mL
same,AUCInf,[2],764 ± 187 ng·h/mL
same,AUClast/D,[2],729 ± 179 mg·h/mL
same,MRT,[2],1.74 ± 0.49 h
same,T1/2,[2],9.4 ± 1.01 h
same,MIC EF,Enterococcus faecium; [4],4 µg/mL
same,AUCextrap,[3],4.63 ± 0.51%
same,AUClast/D,[3],72.9 ± 17.9 ng·h/mL
same,Lipid II binding affinity,[1],below micromolar
CN(C)c1ccc(/C=C/c2cc(-c3cccc(F)c3)cc(-c3cccc(F)c3)[o+]2)cc1 [Compound 7jc46-1],Bacterial Killing E. coli,Escherichia coli,>64
same,Bacterial Killing S. aureus,Staphylococcus aureus,1
same,Bacterial Killing E. faecium,Enterococcus faecium,2
CN1/C(=C/C=C/c2cc(-c3ccc(Br)cc3)cc(-c3ccc(Br)cc3)[o+]2)C(C)(C)c2ccccc21 [Compound 7jc42-2],Bacterial Killing E. coli,Escherichia coli,>64
same,Bacterial Killing S. aureus,Staphylococcus aureus,32
same,Bacterial Killing E. faecium,Enterococcus faecium,32
CN(C)c1ccc(/C=C/c2cc(-c3ccc(Br)cc3)cc(-c3ccc(Br)cc3)[n+]2C)cc1.[I-] [EL-2],MIC AB,Acinetobacter baumannii,8 µg/mL
same,MIC SA,Staphylococcus aureus,1 µg/mL
same,CC50,HeLa cells; exposure 24 hour,5 µg/mL
same,CC50,HeLa cells; exposure 24 hours,5 µg/mL
same,MIC EF,Enterococcus faecium; E. faecium EF1509 (VRE),1 µg/mL
same,MIC EF,Enterococcus faecium; [4],1 µg/mL
"Cc1ccc(-c2cc(-c3ccc(Br)cc3)cc(/C=C/c3ccc(N(C)CCC#N)cc3)[n+]2C)cc1C.[I-] [Compound 9u, (E)-4-(4-bromophenyl)-2-(4-((2-cyanoethyl)(methyl)amino)styryl)-6-(3,4-dimethylphenyl)-1-methylpyridin-1-ium iodide]",MIC,Acinetobacter baumannii,16 µg/mL
same,MIC,Staphylococcus aureus,2 µg/mL
same,MIC,Enterococcus faecium,8 µg/mL
"CN(C)c1ccc(/C=C/c2cc(-c3ccc(Br)cc3)cc(-c3ccc(Br)cc3)[n+]2C)cc1.[I-] [Compound 9, (E)-2,4-bis(4-bromophenyl)-6-(4-(dimethylamino)styryl)-1-methylpyridin-1-ium iodide]",MIC,Acinetobacter baumannii,8 µg/mL
same,MIC,Staphylococcus aureus,1 µg/mL
same,MIC,Enterococcus faecium,8 µg/mL
Cc1ccc(/C=C/c2cc(-c3ccc(Br)cc3)cc(-c3ccc(Br)cc3)[n+]2C)cc1.[I-] [EL-11],MIC AB,Acinetobacter baumannii,>64 µg/mL
same,MIC SA,Staphylococcus aureus,1 µg/mL
same,CC50,HeLa cells; exposure 24 hours,5 µg/mL
same,AUCInf,[2],2137 ± 455 ng·h/mL
same,AUClast/D,[2],1853 ± 372 mg·h/mL
same,Cl—obs,[2],80.3 ± 16.6 mL/min/kg
same,MRT,[2],9.13 ± 3.17 h
same,T1/2,[2],11 ± 2.37 h
same,MIC EF,Enterococcus faecium; [4],4 µg/mL
same,AUCextrap,[3],12.9 ± 5.6%
same,AUClast/D,[3],185.3 ± 37.3 ng·h/mL
same,Lipid II binding affinity,[1],below micromolar
"Cc1ccc(-c2cc(-c3ccc(Br)cc3)cc(/C=C/c3ccc(N(C)C)cc3)[n+]2C)cc1C.[I-] [Compound 9w, (E)-4-(4-bromophenyl)-2-(4-(dimethylamino)styryl)-6-(3,4-dimethylphenyl)-1-methylpyridin-1-ium iodide]",MIC,Acinetobacter baumannii,8 µg/mL
same,MIC,Staphylococcus aureus,1 µg/mL
same,MIC,Enterococcus faecium,4 µg/mL
"CN(C)c1ccc(/C=C/c2cc(-c3ccc(Br)cc3Cl)cc(-c3ccc(Br)cc3)[n+]2C)cc1.[I-] [Compound 9z1, (E)-4-(4-bromo-2-chlorophenyl)-2-(4-bromophenyl)-6-(4-(dimethylamino)-styryl)-1-methylpyridin-1-ium iodide]",MIC,Acinetobacter baumannii,32 µg/mL
same,MIC,Staphylococcus aureus,4 µg/mL
same,MIC,Enterococcus faecium,8 µg/mL
"Cc1ccc(-c2cc(-c3ccc(Br)cc3)cc(/C=C/c3ccc(N(C)CCO)cc3)[n+]2C)c(C)c1.[I-] [Compound 9t, (E)-4-(4-bromophenyl)-2-(2,4-dimethylphenyl)-6-(4-((2-hydroxyethyl)(methyl)-amino)styryl)-1-methylpyridin-1-ium iodide]",MIC,Acinetobacter baumannii,16 µg/mL
same,MIC,Staphylococcus aureus,0.5 µg/mL
same,MIC,Enterococcus faecium,2 µg/mL
"COc1cc(-c2cc(/C=C/c3ccc(N(C)CCO)cc3)[n+](C)c(-c3ccc(Br)cc3)c2)cc(OC)c1Br.[I-] [Compound 9y3, (E)-4-(4-bromo-3,5-dimethoxyphenyl)-2-(4-bromophenyl)-6-(4-((2-hydroxy-ethyl)(methyl)amino)styryl)-1-methylpyridin-1-ium iodide]",MIC,Acinetobacter baumannii,8 µg/mL
same,MIC,Staphylococcus aureus,4 µg/mL
same,MIC,Enterococcus faecium,8 µg/mL
CN1/C(=C/C=C/c2cc(-c3ccc(Cl)cc3)cc(-c3ccc(Cl)cc3)[o+]2)C(C)(C)c2ccccc21 [Compound 7jc42-1],Bacterial Killing E. coli,Escherichia coli,>64
same,Bacterial Killing S. aureus,Staphylococcus aureus,8
same,Bacterial Killing E. faecium,Enterococcus faecium,32
"Cc1ccc(/C=C/c2cc(-c3ccc(Br)cc3)cc(-c3ccc(Br)cc3)[n+]2C)cc1.[I-] [Compound 9d, (E)-2,4-bis(4-bromophenyl)-1-methyl-6-(4-methylstyryl)pyridin-1-ium iodide]",MIC,Acinetobacter baumannii,> 64 µg/mL
same,MIC,Staphylococcus aureus,1 µg/mL
same,MIC,Enterococcus faecium,4 µg/mL
"CCN(CC)c1ccc(/C=C/c2cc(-c3ccc(Br)cc3)cc(-c3ccc(Br)cc3)[n+]2C)cc1.[I-] [Compound 9f, (E)-2,4-bis(4-bromophenyl)-6-(4-(diethylamino)styryl)-1-methylpyridin-1-ium iodide]",MIC,Acinetobacter baumannii,32 µg/mL
same,MIC,Staphylococcus aureus,1 µg/mL
same,MIC,Enterococcus faecium,2 µg/mL
"CN(CCC#N)c1ccc(/C=C/c2cc(-c3ccc(Br)cc3)cc(-c3ccc(Br)cc3)[n+]2C)cc1.[I-] [Compound 9k, (E)-2,4-bis(4-bromophenyl)-6-(4-((2-cyanoethyl)(methyl)amino)styryl)-1-methylpyridin-1-ium iodide]",MIC,Acinetobacter baumannii,64 µg/mL
same,MIC,Staphylococcus aureus,32 µg/mL
same,MIC,Enterococcus faecium,32 µg/mL
